These results are taken from patent publication US9023894B2, “Synergistic combinations comprising a renin inhibitor for cardiovascular diseases” (priority 2000, dated 2015).

Entries after “also recorded” stand apart in the source; their conditions may differ.

Assay [1] relates to normotensive rats. As to conditions: Ang II at 1 mg/kg, after treatment; cited from earlier work.
The test system of assay [2] is SHR with endothelial dysfunction. The experiment in a line: Endothelial dysfunction test: SHR treated with the NO synthesis inhibitor L-NAME for 12 weeks. It counts as in vivo, rat. As to conditions: for proteinuria / kidney lesions: low doses; for proteinuria / survival rates: drugs in drinking fluid; for kidney lesions: kidney sections; for survival rates: low, non-blood pressure reducing doses. Here is the method:
Male 20-24 week-old SHR, purchased from RCC Ldt (Fullingsdorf, Switzerland), are maintained in a temperature- and light-controlled room with free access to rat chow (Nafag 9331, Gossau, Switzerland) and tap water. The experiment is performed in accordance with the NIH guidelines and approved by the Canton Veterinary office (Bew 161, Kantonales Veterinäramt, Liestal, Switzerland). All rats are treated with the NO synthesis inhibitor L-NAME (Sigma Chemicals) administered in drinking water (50 mg/l) for 12 weeks. The average daily dose of L-NAME calculated from the water consumed was 2.5 mg/kg/d (range 2.1-2.7).
The rats can be divided into 5 groups: group 1, control (n=40); Group 2, the compound of formula (I) in form of the hemi-fumarate (ren1; n=40); Group 3, enalapril (ena1; n=30); Group 4, a combination (ena1ren1) of enalapril and the compound of formula (I) in form of the hemi-fumarate; (n=30) and Group 5, the compound of formula (I) in form of the hemi-fumarate (ren2—higher dose; n=30). The drugs are administered in drinking fluid.
Body weight is measured every week. Systolic blood pressure and heart rate are recorded by tail cuff plethysmography 3 and 2 weeks before starting the study and at 2 weeks after drug administration. Urine is collected over a 24 hour period from rats kept in individual (metabolic) cages the week before starting treatment and at weeks 4 and 12 for volume measurement and protein, creatinine, sodium and potassium determination using standard laboratory methods. At the same time points, blood samples are withdrawn from the retro-orbital plexus (maximum 1 ml) for creatinine, Na^+ and K^+ assays.
Ten rats from each group are sacrificed at 4 weeks for collection of kidney and heart for morphological analysis. The remaining rats are sacrificed at 12 weeks. Cardiac and kidney weight is recorded. Terminal blood sampling is performed in 5% EDTA at 4 (morphometry study) and 12 (end of the study) weeks for aldosterone, determination by radioimmunoassay using a DPC coat-a-count aldosterone-RIA kit (Bühlmann, Switzerland).
All data are expressed as mean±SEM. Statistical analysis is performed using a one-way ANOVA, followed by a Duncan's multiple range test and a Newman-Keuls test, 7 for comparison between the different groups. Results with a probability value of less than 0.05 are deemed statistically significant.

Regarding `COCCCOc1cc(C[C@@H](C[C@H](N)[C@@H](O)C[C@H](C(=O)NCC(C)(C)C(N)=O)C(C)C)C(C)C)ccc1OC` [2(S),4(S),5(S),7(S)—N-(3-amino-2,2-dimethyl-3-oxopropyl)-2,7-di(1-methylethyl)-4-hydroxy-5-amino-8-[4-methoxy-3-(3-methoxy-propoxy)phenyl]-octanamide], in assay [1], the “pressor effect of Ang II” value is given as “can be reducted”. In assay [2], the proteinuria entry is listed as “no decrease in proteinuria”, the kidney lesions result is reported as “no reduction of kidney lesions” and the survival rates result is recorded as “significant improvements in survival rates”. The survival rates result in assay [2] (listed as renin inhibitor of formula (I)) is “improved survival”.

For the compound `CCOC(=O)[C@H](CCc1ccccc1)N[C@@H](C)C(=O)N1CCC[C@H]1C(=O)O` [enalapril, reference compound], in assay [2], the proteinuria result is “no decrease in proteinuria”, the kidney lesions result is listed as “no reduction of kidney lesions” and the survival rates entry was “improved survival; also recorded: significant improvements in survival rates”.
